Source: patent publication US7803930B2, “Antisense modulation of apolipoprotein B-expression” (Isis Pharmaceuticals, Inc., priority 2002, dated 2010)
In the oligonucleotide strings, read from the 5' end, every base follows the letter of its sugar. An asterisk marks phosphorothioate; unmarked linkages are phosphodiester. Other units and linkages are bracketed, terminal groups are in braces. A string of capitals states the bases alone. e = 2'-O-(2-methoxyethyl) (MOE); [5mC] = 5-methylcytosine; d = 2'-deoxy (DNA)

System: rabbit apolipoprotein B mRNA
Test: Inhibition of rabbit apolipoprotein B mRNA levels in primary rabbit hepatocytes, real-time PCR
Assay type: cell-based
Design: % INHIB of rabbit apolipoprotein B mRNA levels: concentration or dose not given beside the values
Details: for Percent Inhibition of rabbit apolipoprotein B mRNA levels: averages from two experiments
Excerpt: Primary rabbit hepatocytes were purchased from Invitro Technologies (Gaithersburg, Md.) and maintained in Dulbecco's modified Eagle's medium (Gibco). When purchased, the cells had been seeded into 96-well plates for use in RT-PCR analysis and were confluent.
In accordance with the present invention, a series of oligonucleotides was designed to target different regions of rabbit apolipoprotein B, using published sequences (GenBank accession number X07480.1, incorporated herein as SEQ ID NO: 808, GenBank accession number M17780.1, incorporated herein as SEQ ID NO: 809, and a sequence was derived using previously described primers (Tanaka, Journ. Biol. Chem., 1993,268, 12713-12718) representing an mRNA of the rabbit apolipoprotein B, incorporated herein as SEQ ID NO: 810). “Target site” indicates the first (5′-most) nucleotide number on the particular target sequence to which the oligonucleotide binds. All compounds in Table 21 are chimeric oligonucleotides (“gapmers”) 20 nucleotides in length, composed of a central “gap” region consisting of ten 2′-deoxynucleotides, which is flanked on both sides (5′ and 3′ directions) by five-nucleotide “wings”. The wings are composed of 2′-methoxyethyl (2′-MOE)nucleotides. The internucleoside (backbone) linkages are phosphorothioate (P═S) throughout the oligonucleotide. All cytidine residues are 5-methylcytidines. The compounds were analyzed for their effect on rabbit apolipoprotein B mRNA levels in primary rabbit hepatocytes by quantitative real-time PCR as described in other examples herein. Primary rabbit hepatocytes were treated with 150 nM of the compounds in Table 21. For rabbit apolipoprotein B the PCR primers were: • forward primer: AAGCACCCCCAATGTCACC (SEQ ID NO: 811) • reverse primer: […] (SEQ ID NO: 812) and the PCR probe was: FAM-[…]-TAMRA (SEQ ID NO: 813) where FAM (PE-Applied Biosystems, Foster City, Calif.) is the fluorescent reporter dye) and TAMRA (PE-Applied Biosystems, Foster City, Calif.) is the quencher dye. Data are averages from two experiments. If present, “N.D.” indicates “no data”.
In accordance with the present invention, a subset of the antisense oligonuclotides in Example 42 was further investigated in dose-response studies. Treatment doses were 10, 50, 150 and 300 nM. ISIS 233160 (SEQ ID NO: 824), ISIS 233166 (SEQ ID NO: 830), ISIS 233172 (SEQ ID NO: 835), ISIS 233175 (SEQ ID NO: 838), and ISIS 233183 (SEQ ID NO: 846) were analyzed for their effect on rabbit apolipoprotein B mRNA levels in primary rabbit hepatocytes by quantitative real-time PCR as described in other examples herein.

Substance | % INHIB of rabbit apolipoprotein B mRNA levels [%] | other results
233160 (antisense eA*eT*eT*eG*eG*dA*dA*dT*dA*dA*dT*dG*dT*dA*dT*e[5mC]*e[5mC]*eA*eG*eG) [compound 233160] | 81 | Percent Inhibition of rabbit apolipoprotein B mRNA levels (10 nM): 33%; Percent Inhibition of rabbit apolipoprotein B mRNA levels (50 nM): 67%; Percent Inhibition of rabbit apolipoprotein B mRNA levels (150 nM): 74%; Percent Inhibition of rabbit apolipoprotein B mRNA levels (300 nM): 80%
233161 (antisense eT*eT*eG*eG*e[5mC]*dA*dT*dT*dA*dT*d[5mC]*d[5mC]*dA*dA*dT*eG*e[5mC]*eA*eG*eT) [compound 233161] | 28 | 
233162 (antisense eG*eT*eT*eG*e[5mC]*d[5mC]*dT*dT*dG*dT*dG*dA*dG*d[5mC]*dA*eG*e[5mC]*eA*eG*eT) [compound 233162] | 0 | 
233163 (antisense eA*eT*eT*eG*eT*dG*dA*dG*dT*dG*dG*dA*dG*dA*dT*eA*e[5mC]*eT*eT*e[5mC]) [compound 233163] | 80 | 
233164 (antisense e[5mC]*eA*eT*eA*eT*dG*dT*d[5mC]*dT*dG*dA*dA*dG*dT*dT*eG*eA*eG*eA*e[5mC]) [compound 233164] | 8 | 
233165 (antisense eG*eT*eA*eG*eA*dT*dA*d[5mC]*dT*d[5mC]*d[5mC]*dA*dT*dT*dT*eT*eG*eG*e[5mC]*e[5mC]) [compound 233165] | 0 | 
233166 (antisense eG*eG*eA*eT*e[5mC]*dA*d[5mC]*dA*dT*dG*dA*d[5mC]*dT*dG*dA*eA*eT*eG*e[5mC]*eT) [compound 233166] | 82 | Percent Inhibition of rabbit apolipoprotein B mRNA levels (10 nM): 66%; Percent Inhibition of rabbit apolipoprotein B mRNA levels (50 nM): 81%; Percent Inhibition of rabbit apolipoprotein B mRNA levels (150 nM): 79%; Percent Inhibition of rabbit apolipoprotein B mRNA levels (300 nM): 73%
233167 (antisense eT*e[5mC]*eA*eA*eG*d[5mC]*dT*dG*dG*dT*dT*dG*dT*dT*dG*e[5mC]*eA*e[5mC]*eT*eG) [compound 233167] | 28 | 
233168 (antisense eG*eG*eA*e[5mC]*eT*dG*dT*dA*d[5mC]*d[5mC]*dT*d[5mC]*dA*dA*dG*e[5mC]*eT*eG*eG*eT) [compound 233168] | 0 | 
233169 (antisense eG*e[5mC]*eT*e[5mC]*eA*dT*dT*d[5mC]*dT*d[5mC]*d[5mC]*dA*dG*d[5mC]*dA*eT*e[5mC]*eA*eG*eG) [compound 233169] | 14 | 
233170 (antisense eT*eT*eG*eA*eT*d[5mC]*dT*dA*dT*dA*dA*dT*dA*d[5mC]*dT*eA*eG*e[5mC]*eT*eA) [compound 233170] | 23 | 
233173 (antisense eT*eT*eG*eT*eG*dT*dT*d[5mC]*d[5mC]*dT*dT*dG*dA*dA*dG*e[5mC]*eG*eG*e[5mC]*e[5mC]) [compound 233173] | 3 | 
233174 (antisense eT*eG*eT*eG*e[5mC]*dA*d[5mC]*dG*dG*dA*dT*dA*dT*dG*dA*eT*eA*eA*e[5mC]*eG) [compound 233174] | 21 | 
233176 (antisense eG*eA*eA*eA*eT*d[5mC]*dT*dG*dG*dA*dA*dG*dA*dG*dA*eG*eA*e[5mC]*e[5mC]*eT) [compound 233176] | 62 | 
233177 (antisense eG*eT*eA*eG*e[5mC]*dT*dT*dT*d[5mC]*d[5mC]*d[5mC]*dA*dT*d[5mC]*dT*eA*eG*eG*e[5mC]*eT) [compound 233177] | 0 | 
233178 (antisense eG*eA*eT*eA*eA*d[5mC]*dT*d[5mC]*dT*dG*dT*dG*dA*dG*dG*eG*eT*eA*eG*e[5mC]) [compound 233178] | 0 | 
233179 (antisense eA*eT*eG*eT*eT*dG*d[5mC]*d[5mC]*d[5mC]*dA*dT*dG*dG*d[5mC]*dT*eG*eG*eA*eA*eT) [compound 233179] | 65 | 
233180 (antisense eA*eA*eG*eA*eT*dG*d[5mC]*dA*dG*dT*dA*d[5mC]*dT*dA*d[5mC]*eT*eT*e[5mC]*e[5mC]*eA) [compound 233180] | 13 | 
233181 (antisense eG*e[5mC]*eA*e[5mC]*e[5mC]*d[5mC]*dA*dG*dA*dA*dT*d[5mC]*dA*dT*dG*eG*e[5mC]*e[5mC]*eT*eG) [compound 233181] | 0 | 
233182 (antisense e[5mC]*eT*eT*eG*eA*dT*dA*d[5mC]*dT*dT*dG*dG*dT*dA*dT*e[5mC]*e[5mC]*eA*e[5mC]*eA) [compound 233182] | 59 | 
233183 (antisense e[5mC]*eA*eG*eT*eG*dT*dA*dA*dT*dG*dA*dT*d[5mC]*dG*dT*eT*eG*eA*eT*eT) [compound 233183] | 88 | Percent Inhibition of rabbit apolipoprotein B mRNA levels (10 nM): 30%; Percent Inhibition of rabbit apolipoprotein B mRNA levels (50 nM): 71%; Percent Inhibition of rabbit apolipoprotein B mRNA levels (150 nM): 81%; Percent Inhibition of rabbit apolipoprotein B mRNA levels (300 nM): 80%
233184 (antisense eT*eA*eA*eA*eG*dT*d[5mC]*d[5mC]*dA*dG*d[5mC]*dA*dT*dT*dG*eG*eT*eA*eT*eT) [compound 233184] | 69 | 
233185 (antisense e[5mC]*eA*eA*e[5mC]*eA*dA*dT*dG*dT*d[5mC]*dT*dG*dA*dT*dT*eG*eG*eT*eT*eA) [compound 233185] | 73 | 
233186 (antisense eG*eA*eA*eG*eA*dG*dG*dA*dA*dG*dA*dA*dA*dG*dG*eA*eT*eA*eT*eG) [compound 233186] | 60 | 
233187 (antisense eT*eG*eA*e[5mC]*eA*dG*dA*dT*dG*dA*dA*dG*dA*dG*dG*eA*eA*eG*eA*eA) [compound 233187] | 66 | 
233188 (antisense eT*eT*eG*eT*eA*d[5mC]*dT*dG*dT*dA*dG*dT*dG*d[5mC]*dA*eT*e[5mC]*eA*eA*eT) [compound 233188] | 74 | 
233189 (antisense eG*e[5mC]*e[5mC]*eT*e[5mC]*dA*dA*dT*d[5mC]*dT*dG*dT*dT*dG*dT*eT*eT*e[5mC]*eA*eG) [compound 233189] | 46 | 
233190 (antisense eA*e[5mC]*eT*eT*eG*dA*dG*d[5mC]*dG*dT*dG*d[5mC]*d[5mC]*d[5mC]*dT*e[5mC]*eT*eA*eA*eT) [compound 233190] | 69 | 
233191 (antisense eG*eA*eA*eA*eT*dG*dG*dA*dA*dT*dT*dG*dT*dA*dG*eT*eT*e[5mC]*eT*e[5mC]) [compound 233191] | 31 | 
